From patent US20260285888A1, “HETEROCYCLIC COMPOUND AND USE THEREOF” (OTSUKA PHARMACEUTICAL CO., LTD., priority 2023, published 2026)

Assays:
[1] = Study for confirmation of conversion to brexpiprazole in a buffer (stability of the evaluation compounds); format: physicochemical; details: in buffer, average of duplicate; for Concentration of brexpiprazole formed: 60-minute reaction sample; for Concentration of evaluation compound decreased: decrease in 60-minute vs 0-minute reaction sample
Summary of the method: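 Compounds (final 1 μmol/L, from 100 μmol/L working solutions) incubated in buffer at 37° C. for 0 or 60 min, in duplicate, after 3 min pre-incubation of the reaction solution. Reactions stopped with acetonitrile/isopropanol (4:1) containing internal standards; compound and formed brexpiprazole quantified against 0.01–1 μmol/L calibration samples.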

in vitro = format: cell-based, human; details: human, differentiated hl-60 cells, 300 μmol/L, about 24 hours, PMA-differentiated HL-60 cells, LDH; no-treatment 0%, cell lysis buffer 100%; read-out: cytotoxicity (%) Evaluation compound results
Summary of the method: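 HL-60 cells differentiated ~72 h with 10 nM PMA, then exposed ~24 h to compound at 300 μmol/L final in RPMI with 2% FBS. LDH release in supernatant gave cytotoxicity % scaled between untreated (0%) and lysis-buffer (100%) groups; triplicate.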

| Concentration of brexpiprazole formed [1] | Concentration of evaluation compound decreased [1] | SMILES | cytotoxicity at 24 h, 300 µM (in vitro) |
| --- | --- | --- | --- |
| 0.00 µM | 0.05 µM | CC1(C)O[C@H]2[C@@H](O1)[C@@H](COP(=O)([O-])OC[N+]1(CCCCOc3ccc4ccc(=O)[nH]c4c3)CCN(c3cccc4sccc34)CC1)O[C@@H]1OC(C)(C)O[C@@H]12 [EX 100, (4-(benzo[b]thiophen-4-yl)-1-(4-((2-oxo-1,2-dihydroquinolin-7-yl)oxy)butyl)piperazin-1-ium-1-yl)methyl (((3aR,5R,5aS,8aS,8bR)-2,2,7,7-tetramethyltetrahydro-5H-bis([1,3]dioxolo)[4,5-b:4′,5′-d]pyran-5-yl)methyl)phosphate] | -3% |
| 0.00 µM | 0.07 µM | CC(C)(C)C(=O)OCCCCCCOP(=O)([O-])OC[N+]1(CCCCOc2ccc3ccc(=O)[nH]c3c2)CCN(c2cccc3sccc23)CC1 [EX 102, (4-(benzo[b]thiophen-4-yl)-1-(4-((2-oxo-1,2-dihydroquinolin-7-yl)oxy)butyl)piperazin-1-ium-1-yl)methyl (6-(pivaloyloxy)hexyl) phosphate] | 16% |
| 0.00 µM | -0.01 µM | CCOC(=O)[C@@H](C)OP(=O)([O-])OC[N+]1(CCCCOc2ccc3ccc(=O)[nH]c3c2)CCN(c2cccc3sccc23)CC1 [EX 103, (R)-(4-(benzo[b]thiophen-4-yl)-1-(4-((2-oxo-1,2-dihydroquinolin-7-yl)oxy)butyl)piperazin-1-ium-1-yl)methyl(1-ethoxy-1-oxopropan-2-yl) phosphate] | 3% |
| 0.00 µM | 0.20 µM | CCOC(=O)[C@H](C)OP(=O)([O-])OC[N+]1(CCCCOc2ccc3ccc(=O)[nH]c3c2)CCN(c2cccc3sccc23)CC1 [EX 104, (S)-(4-(benzo[b]thiophen-4-yl)-1-(4-((2-oxo-1,2-dihydroquinolin-7-yl)oxy)butyl)piperazin-1-ium-1-yl)methyl (1-ethoxy-1-oxopropan-2-yl) phosphate] | -5% |
| 0.00 µM | 0.05 µM | CC(C)OC(=O)[C@@H](C)OP(=O)([O-])OC[N+]1(CCCCOc2ccc3ccc(=O)[nH]c3c2)CCN(c2cccc3sccc23)CC1 [EX 105, (R)-(4-(benzo[b]thiophen-4-yl)-1-(4-((2-oxo-1,2-dihydroquinolin-7-yl)oxy)butyl)piperazin-1-ium-1-yl)methyl (1-isopropoxy-1-oxopropan-2-yl) phosphate] | -6% |
| 0.00 µM | 0.07 µM | CCOC(=O)C(CC)OP(=O)([O-])OC[N+]1(CCCCOc2ccc3ccc(=O)[nH]c3c2)CCN(c2cccc3sccc23)CC1 (stereo not drawn) [EX 110, (4-(benzo[b]thiophen-4-yl)-1-(4-((2-oxo-1,2-dihydroquinolin-7-yl)oxy)butyl)piperazin-1-ium-1-yl)methyl (1-ethoxy-1-oxobutan-2-yl) phosphate] | -3% |
| 0.00 µM | 0.02 µM | CCOC(=O)C[C@@H](OP(=O)([O-])OC[N+]1(CCCCOc2ccc3ccc(=O)[nH]c3c2)CCN(c2cccc3sccc23)CC1)C(=O)OCC [EX 111, (R)-(4-(benzo[b]thiophen-4-yl)-1-(4-((2-oxo-1,2-dihydroquinolin-7-yl)oxy)butyl)piperazin-1-ium-1-yl)methyl (1,4-diethoxy-1,4-dioxobutan-2-yl) phosphate] | 0% |
| 0.00 µM | 0.16 µM | O=c1ccc2ccc(OCCCC[N+]3(COP(=O)([O-])OCCCCCCl)CCN(c4cccc5sccc45)CC3)cc2[nH]1 [EX 113, (4-(benzo[b]thiophen-4-yl)-1-(4-((2-oxo-1,2-dihydroquinolin-7-yl)oxy)butyl)piperazin-1-ium-1-yl)methyl (5-chloropentyl) phosphate] | 10% |
| 0.00 µM | 0.09 µM | C[C@@H]1CN(CCOP(=O)([O-])OC[N+]2(CCCCOc3ccc4ccc(=O)[nH]c4c3)CCN(c3cccc4sccc34)CC2)C[C@H](C)O1 [EX 116, (4-(benzo[b]thiophen-4-yl)-1-(4-((2-oxo-1,2-dihydroquinolin-7-yl)oxy)butyl)piperazin-1-ium-1-yl)methyl (2-((2S,6R)-2,6-dimethylmorpholino)ethyl) phosphate] | -9% |
| 0.00 µM | 0.05 µM | CN1CCN(CCOP(=O)([O-])OC[N+]2(CCCCOc3ccc4ccc(=O)[nH]c4c3)CCN(c3cccc4sccc34)CC2)CC1 [EX 117, (4-(benzo[b]thiophen-4-yl)-1-(4-((2-oxo-1,2-dihydroquinolin-7-yl)oxy)butyl)piperazin-1-ium-1-yl)methyl (2-(4-methylpiperazin-1-yl)ethyl) phosphate] | -7% |
| 0.00 µM | 0.06 µM | O=c1ccc2ccc(OCCCC[N+]3(COP(=O)([O-])OCCN4CCCCC4)CCN(c4cccc5sccc45)CC3)cc2[nH]1 [EX 118, (4-(benzo[b]thiophen-4-yl)-1-(4-((2-oxo-1,2-dihydroquinolin-7-yl)oxy)butyl)piperazin-1-ium-1-yl)methyl (2-(piperidin-1-yl)ethyl) phosphate] | -8% |
| 0.00 µM | 0.14 µM | O=c1ccc2ccc(OCCCC[N+]3(COP(=O)([O-])OCCN4CCC(F)(F)CC4)CCN(c4cccc5sccc45)CC3)cc2[nH]1 [EX 119, (4-(benzo[b]thiophen-4-yl)-1-(4-((2-oxo-1,2-dihydroquinolin-7-yl)oxy)butyl)piperazin-1-ium-1-yl)methyl (2-(4,4-difluoropiperidin-1-yl)ethyl) phosphate] | 2% |
| 0.00 µM | 0.05 µM | CCC(=O)OCOP(=O)([O-])OC[N+]1(CCCCOc2ccc3ccc(=O)[nH]c3c2)CCN(c2cccc3sccc23)CC1 [EX 120, (4-(benzo[b]thiophen-4-yl)-1-(4-((2-oxo-1,2-dihydroquinolin-7-yl)oxy)butyl)piperazin-1-ium-1-yl)methyl ((propionyloxy)methyl) phosphate] | 13% |
| 0.00 µM | -0.11 µM | CCCC(C)(C)C(=O)OCOP(=O)([O-])OC[N+]1(CCCCOc2ccc3ccc(=O)[nH]c3c2)CCN(c2cccc3sccc23)CC1 [EX 123, (4-(benzo[b]thiophen-4-yl)-1-(4-((2-oxo-1.2-dihydroquinolin-7-yl)oxy)butyl)piperazin-1-ium-1-yl)methyl (((2,2-dimethylpentanoyl)oxy)methyl) phosphate] | -8% |
| 0.00 µM | 0.13 µM | O=C(CCO)OCOP(=O)([O-])OC[N+]1(CCCCOc2ccc3ccc(=O)[nH]c3c2)CCN(c2cccc3sccc23)CC1 [EX 125, (4-(benzo[b]thiophen-4-yl)-1-(4-((2-oxo-1,2-dihydroquinolin-7-yl)oxy)butyl)piperazin-1-ium-1-yl)methyl (((3-hydroxypropanoyl)oxy)methyl) phosphate] | -7% |

| SMILES | Concentration of brexpiprazole formed [1] | Concentration of evaluation compound decreased [1] | cytotoxicity at 24 h, 300 µM (in vitro) |
| --- | --- | --- | --- |
| CC(=O)OCCCCCCOP(=O)([O-])OC[N+]1(CCCCOc2ccc3ccc(=O)[nH]c3c2)CCN(c2cccc3sccc23)CC1 [EX 101, 6-acetoxyhexyl ((4-(benzo[b]thiophen-4-yl)-1-(4-((2-oxo-1,2-dihydroquinolin-7-yl)oxy)butyl)piperazin-1-ium-1-yl)methyl) phosphate] | 0.00 µM | 0.08 µM | 16% |
| C[C@@H](OP(=O)([O-])OC[N+]1(CCCCOc2ccc3ccc(=O)[nH]c3c2)CCN(c2cccc3sccc23)CC1)C(=O)OC(C)(C)C [EX 106, (R)-(4-(benzo[b]thiophen-4-yl)-1-(4-((2-oxo-1.2-dihydroquinolin-7-yl)oxy)butyl)piperazin-1-ium-1-yl)methyl (1-(tert-butoxy)-1-oxopropan-2-yl) phosphate] | 0.00 µM | 0.07 µM | 10% |
| CC(C)COC(=O)[C@@H](C)OP(=O)([O-])OC[N+]1(CCCCOc2ccc3ccc(=O)[nH]c3c2)CCN(c2cccc3sccc23)CC1 [EX 107, (R)-(4-(benzo[b]thiophen-4-yl)-1-(4-((2-oxo-1,2-dihydroquinolin-7-yl)oxy)butyl)piperazin-1-ium-1-yl)methyl (1-isobutoxy-1-oxopropan-2-yl) phosphate] | 0.00 µM | 0.07 µM | -6% |
| CCC(CC)COC(=O)[C@@H](C)OP(=O)([O-])OC[N+]1(CCCCOc2ccc3ccc(=O)[nH]c3c2)CCN(c2cccc3sccc23)CC1 [EX 108, (R)-(4-(benzo[b]thiophen-4-yl)-1-(4-((2-oxo-1,2-dihydroquinolin-7-yl)oxy)butyl)piperazin-1-ium-1-yl)methyl (1-(2-ethylbutoxy)-1-oxopropan-2-yl) phosphate] | 0.00 µM | 0.08 µM | -7% |
